Experimental data: US20250228954A1, “Designing Antisense Oligonucleotide Delivery Peptides by Interpretable Machine Learning” (Sarepta Therapeutics, Inc., priority 2020, published 2025)
Square brackets hold non-standard residues; d marks the D form. Ends that are not written are not given here. Ahx = NCCCCCC(=O)O; βAla = NCCC(=O)O

Legend:
[1] = test system: HeLa 654 cells; test: HeLa-654 eGFP assay (corrective splicing / exon skipping by PMO IVS2-654); assay type: cell-based, human; details: 5 μM, 22 h; for FOLD OVER PMO: eGFP fluorescence of PMO-peptide conjugate relative to unconjugated PMO
Experimental: With the 36 constructs synthesized, the ability to modulate PMO activity using the modified HeLa cell assay was tested. The HeLa-654 cells were stably transfected to express a nonfluorescent eGFP protein. The eGFP gene is interrupted by a mutant intron from the human β-globin gene (IVS2-654). The insertion alters pre-mRNA splicing to cause retention of a fragment in the mature mRNA that results in a nonfluorescent protein. PMO IVS2-654 base-pairs with the B-globin insertion, modifies mRNA splicing, and thereby leads to expression of fluorescent eGFP.
For treatment, the crude reaction mixture was diluted to 5 μM in media. The concentration of the modular construct was calculated based on the original concentration of the module 1-2 conjugate mixed in the reaction. Using media containing 10% fetal bovine serum (FBS), the cells were treated with each construct for 22 hours, after which the cellular fluorescence was measured by flow cytometry.
From the lists of hundreds of predicted peptide sequences, twenty candidates were selected that varied in length, charge, and predicted activity to synthesize and test. Just as with the PMO-peptide library, the PMO-Mach constructs were first tested for PMO delivery in the HeLa 654 assay at 5 μM in complete media for 22 hours and analyzed by flow cytometry (FIG. 14). Experiments were conducted using three technical triplicates and two or three biological replicates.
(§1) HeLa 654 cells were maintained in MEM supplemented with 10% (v/v) fetal bovine serum (FBS) and 1% (v/v) penicillin-streptomycin at 37° C. and 5% CO2. Eighteen hours prior to treatment, the cells were plated at a density of 5,000 cells per well in a 96-well plate in MEM supplemented with 10% FBS and 1% penicillin-streptomycin. The day of the experiment, the 384 well plate containing the crude reaction mixtures in DMSO was diluted to 100 μM by the addition of 16.8 μL of PBS to the 3.2 μL reaction mixture. Then, each construct was diluted to 5 μM in MEM supplemented with 10% FBS and 1% penicillin-streptomycin. Cells were incubated with each conjugate at a concentration of 5 μM for 22 hours at 37° C. and 5% CO2. Next, the treatment media was aspirated the cells were incubated with Trypsin-EDTA 0.25% for 15 min at 37° C. and 5% CO2, washed 1× with PBS, and resuspended in PBS with 2% FBS and 2 μg/mL propidium iodide. Flow cytometry analysis was carried out on a BD LSRII flow cytometer. Gates were applied to the data to ensure that cells that were highly positive for propidium iodide or had forward/side scatter readings that were sufficiently different from the main cell population were excluded. Each sample was capped at 5,000 gated events.
Analysis was conducted using Graphpad Prism 7. For each sample, the mean fluorescence intensity and the number of gated cells was measured (FIGS. 8 and 9) and the intensity multiplied by the cell number was calculated (FIG. 7).

[2] = test system: HeLa 654 cells; test: Cytotoxicity by gated cell count and propidium iodide staining in flow cytometry; assay type: cell-based, human; details: at the concentrations tested in dose-response, 22 h
Source text: The different modules led to several noticeable trends in the level of cellular fluorescence (FIG. 6). When module 2 was DPV6, the overall construct consistently led to high fluorescence, regardless of which peptides were placed in module 3 and 4. However, when either pVEC or TP10 was placed in module 2, minor cellular fluorescence was observed. A gated cell count was used during flow cytometry as an indirect read-out to control for the toxicity of the compounds. Highly toxic compounds led to a reduction in overall cell count and non-viable cells were gated out based upon propidium iodide staining. In this experiment, it was observed that when the module 3 peptide was the nuclear localization sequence KRVK, lower cell counts were consistently observed.
In the same format as described above, HeLa 654 cells were treated with varying concentrations of Mach 2, 3, 4, and 7 for 22 hours and analyzed by flow cytometry.
as §1

Molecule | PMO delivery / activity, result in words [1] | FOLD OVER PMO [1] | cytotoxicity as determined by cell count and PI staining [2]
MACH 11: PMO IVS2-654 conjugate of peptide TSNLKLHLAPPVKKKALKKPLYKAKKKKKVVSPTWXTDQEW (SEQ ID NO: 66), designed to have poor activity (TSNLKLHLAPPVKKKALKKPLYKAKKKKKVVSPTW[Ahx]TDQEW; also: PMO IVS2-654 conjugate) | did not significantly improve PMO delivery | 4 | –
MACH 6: PMO IVS2-654 conjugate of peptide ALKBRSAAKAVRWPKKAIKQASKKVAKYALKXXRKKKAASKXWLQLHWPRW (SEQ ID NO: 62) (ALK[βAla]RSAAKAVRWPKKAIKQASKKVAKYALK[Ahx][Ahx]RKKKAASK[Ahx]WLQLHWPRW; also: PMO IVS2-654 conjugate) | – | 43 | –
CC[C@H](C)[C@H](NC(=O)[C@H](CC(C)C)NC(=O)[C@H](CCCNC(=N)N)NC(=O)CCCCCNC(=O)[C@H](Cc1ccc(O)cc1)NC(=O)[C@H](CCCCN)NC(=O)CCCCCNC(=O)[C@H](C)NC(=O)[C@H](CO)NC(=O)[C@H](CCCNC(=N)N)NC(=O)[C@H](C)NC(=O)[C@H](CCCCN)NC(=O)[C@H](Cc1c[nH]c2ccccc12)NC(=O)[C@H](CC(C)C)NC(=O)[C@H](Cc1c[nH]c2ccccc12)NC(=O)[C@H](CCCCN)NC(=O)[C@H](CCCCN)NC(=O)[C@H](CCCCN)NC(=O)[C@H](CCC(N)=O)NC(=O)[C@H](CCCCN)NC(=O)[C@H](CO)NC(=O)[C@H](CO)NC(=O)[C@H](CCCCN)NC(=O)[C@H](CCCCN)NC(=O)[C@H](CC(C)C)NC(=O)[C@H](CCCNC(=N)N)NC(=O)[C@H](CCCCN)NC(=O)[C@H](CCCCN)NC(=O)[C@H](CCCCN)NC(=O)[C@H](Cc1c[nH]c2ccccc12)NC(=O)[C@H](CC(C)C)NC(=O)[C@H](C)NC(=O)[C@H](C)NC(=O)[C@H](C)NC(=O)[C@@H]1CCCN1C(=O)[C@@H](NC(=O)[C@H](CCCCN)NC(=O)[C@H](Cc1c[nH]c2ccccc12)NC(=O)[C@H](C)NC(=O)[C@H](CCCNC(=N)N)NC(=O)[C@H](C)NC(=O)[C@H](C)NC(=O)CCNC(=O)[C@H](CCC(N)=O)NC(=O)[C@@H](NC(=O)[C@H](C)NC(=O)CCCCCNC(=O)[C@@H]1CCCN1C(=O)[C@H](Cc1c[nH]cn1)NC(=O)[C@H](CCCCN)NC(=O)CCCCCNC(=O)CCCCn1nnc2c1-c1ccccc1N(C(=O)CCCCC(=O)N1C[C@@H](COP(=O)(N(C)C)N3C[C@@H](COP(=O)(N(C)C)N4C[C@@H](COP(=O)(N(C)C)N5C[C@@H](COP(=O)(N(C)C)N6C[C@@H](COP(=O)(N(C)C)N7C[C@@H](COP(=O)(N(C)C)N8C[C@@H](COP(=O)(N(C)C)N9C[C@@H](COP(=O)(N(C)C)N%10C[C@@H](COP(=O)(N(C)C)N%11C[C@@H](COP(=O)(N(C)C)N%12C[C@@H](COP(=O)(N(C)C)N%13C[C@@H](COP(=O)(N(C)C)N%14C[C@@H](COP(=O)(N(C)C)N%15C[C@@H](COP(=O)(N(C)C)N%16C[C@@H](COP(=O)(N(C)C)N%17C[C@@H](COP(=O)(N(C)C)N%18C[C@@H](COP(=O)(N(C)C)N%19C[C@@H](COP(=O)(N(C)C)N%20CCN(C(=O)OCCOCCOCCO)CC%20)O[C@@H](n%20cnc%21c(=O)[nH]c(N)nc%21%20)C%19)O[C@@H](n%19ccc(N)nc%19=O)C%18)O[C@@H](n%18cc(C)c(=O)[nH]c%18=O)C%17)O[C@@H](n%17cnc%18c(N)ncnc%18%17)C%16)O[C@@H](n%16cc(C)c(=O)[nH]c%16=O)C%15)O[C@@H](n%15cc(C)c(=O)[nH]c%15=O)C%14)O[C@@H](n%14cnc%15c(N)ncnc%15%14)C%13)O[C@@H](n%13ccc(N)nc%13=O)C%12)O[C@@H](n%12ccc(N)nc%12=O)C%11)O[C@@H](n%11cc(C)c(=O)[nH]c%11=O)C%10)O[C@@H](n%10cc(C)c(=O)[nH]c%10=O)C9)O[C@@H](n9cnc%10c(N)ncnc%109)C8)O[C@@H](n8cnc9c(N)ncnc98)C7)O[C@@H](n7ccc(N)nc7=O)C6)O[C@@H](n6ccc(N)nc6=O)C5)O[C@@H](n5ccc(N)nc5=O)C4)O[C@@H](n4cnc5c(N)ncnc54)C3)O[C@@H](n3cnc4c(=O)[nH]c(N)nc43)C1)Cc1ccccc1-2)C(C)C)C(C)C)C(N)=O (stereo partly shown) [MACH 7] | nearly identical | 36 | no cytotoxicity
P11: PMO IVS2-654 conjugate of peptide KKKKKQCKKKHRWPKXXC (SEQ ID NO: 79) (KKKKKQCKKKHRWPK[Ahx][Ahx]C; cysteine pairing not given here; also: PMO IVS2-654 conjugate) | – | 12.9 | –
CC[C@H](C)[C@H](NC(=O)[C@H](CO)NC(=O)[C@H](CC(C)C)NC(=O)[C@H](CCCCN)NC(=O)CNC(=O)[C@H](CCCCN)NC(=O)[C@@H]1CCCN1C(=O)[C@H](Cc1c[nH]c2ccccc12)NC(=O)[C@H](CC(N)=O)NC(=O)[C@H](CCCCN)NC(=O)[C@H](CCCCN)NC(=O)[C@H](CC(N)=O)NC(=O)[C@H](C)NC(=O)[C@H](CCCCN)NC(=O)[C@H](CO)NC(=O)[C@H](CCCCN)NC(=O)[C@H](CCCNC(=N)N)NC(=O)[C@H](CCCCN)NC(=O)[C@H](CCCCN)NC(=O)[C@H](CCC(N)=O)NC(=O)CCCCn1nnc2c1-c1ccccc1N(C(=O)CCCCC(=O)N1C[C@@H](COP(=O)(N(C)C)N3C[C@@H](COP(=O)(N(C)C)N4C[C@@H](COP(=O)(N(C)C)N5C[C@@H](COP(=O)(N(C)C)N6C[C@@H](COP(=O)(N(C)C)N7C[C@@H](COP(=O)(N(C)C)N8C[C@@H](COP(=O)(N(C)C)N9C[C@@H](COP(=O)(N(C)C)N%10C[C@@H](COP(=O)(N(C)C)N%11C[C@@H](COP(=O)(N(C)C)N%12C[C@@H](COP(=O)(N(C)C)N%13C[C@@H](COP(=O)(N(C)C)N%14C[C@@H](COP(=O)(N(C)C)N%15C[C@@H](COP(=O)(N(C)C)N%16C[C@@H](COP(=O)(N(C)C)N%17C[C@@H](COP(=O)(N(C)C)N%18C[C@@H](COP(=O)(N(C)C)N%19C[C@@H](COP(=O)(N(C)C)N%20CCN(C(=O)OCCOCCOCCO)CC%20)O[C@@H](n%20cnc%21c(=O)[nH]c(N)nc%21%20)C%19)O[C@@H](n%19ccc(N)nc%19=O)C%18)O[C@@H](n%18cc(C)c(=O)[nH]c%18=O)C%17)O[C@@H](n%17cnc%18c(N)ncnc%18%17)C%16)O[C@@H](n%16cc(C)c(=O)[nH]c%16=O)C%15)O[C@@H](n%15cc(C)c(=O)[nH]c%15=O)C%14)O[C@@H](n%14cnc%15c(N)ncnc%15%14)C%13)O[C@@H](n%13ccc(N)nc%13=O)C%12)O[C@@H](n%12ccc(N)nc%12=O)C%11)O[C@@H](n%11cc(C)c(=O)[nH]c%11=O)C%10)O[C@@H](n%10cc(C)c(=O)[nH]c%10=O)C9)O[C@@H](n9cnc%10c(N)ncnc%109)C8)O[C@@H](n8cnc9c(N)ncnc98)C7)O[C@@H](n7ccc(N)nc7=O)C6)O[C@@H](n6ccc(N)nc6=O)C5)O[C@@H](n5ccc(N)nc5=O)C4)O[C@@H](n4cnc5c(N)ncnc54)C3)O[C@@H](n3cnc4c(=O)[nH]c(N)nc43)C1)Cc1ccccc1-2)C(=O)N[C@@H](Cc1c[nH]cn1)C(=O)N[C@@H](C)C(=O)N[C@@H](CCCCN)C(=O)N[C@@H](CC(=O)O)C(=O)N[C@@H](Cc1ccc(O)cc1)C(=O)N[C@@H](CCCCN)C(=O)N[C@@H](CCC(N)=O)C(=O)NCC(=O)N1CCC[C@H]1C(=O)N[C@@H](CCCCN)C(=O)N[C@@H](C)C(=O)N[C@@H](CCCCN)C(=O)NCCCCCC(=O)N[C@@H](CCCNC(=N)N)C(=O)N[C@@H](CCCCN)C(=O)N[C@@H](CCC(N)=O)C(=O)N[C@@H](CCCNC(=N)N)C(=O)NCCCCCC(=O)N[C@@H](CCCNC(=N)N)C(N)=O (stereo partly shown) [MACH 3] | – | 38 | no cytotoxicity
P1: PMO IVS2-654 conjugate of peptide KXKKQQGKKKHR (SEQ ID NO: 69) (K[Ahx]KKQQGKKKHR; also: PMO IVS2-654 conjugate) | – | 2.9 | –
